Assay results taken from the supplement of paper PMC10307832.

How the values were obtained:
Experiment in all cases: relative viability (nuclei count vs DMSO), 5 days (fraction); higher = more cells survive
[1] = compound: CC(C)(C)c1cc(NC(=O)Nc2ccc(-c3cn4c(n3)sc3cc(OCCN5CCOCC5)ccc34)cc2)no1 [Quizartinib] + CC(=O)c1c(C)c2cnc(Nc3ccc(N4CCNCC4)cn3)nc2n(C2CCCC2)c1=O [Palbociclib] (partner 0.5 µM)
In short: (§1)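 Values are medians from duplicate plates. Each reflects relative viability, defined as the nuclei count of treated wells over that of vehicle wells. Lung cancer cell lines in 1536-well plates were pin-tool dosed one day after seeding with one drug alone or with a fixed anchor-drug dose plus five library-drug doses (not always all listed) in √10 steps, then fixed, stained and imaged at 4× after 5 days.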

Quizartinib + Navitoclax = compound: CC(C)(C)c1cc(NC(=O)Nc2ccc(-c3cn4c(n3)sc3cc(OCCN5CCOCC5)ccc34)cc2)no1 [Quizartinib] + CC1(C)CCC(c2ccc(Cl)cc2)=C(CN2CCN(c3ccc(C(=O)NS(=O)(=O)c4ccc(N[C@H](CCN5CCOCC5)CSc5ccccc5)c(S(=O)(=O)C(F)(F)F)c4)cc3)CC2)C1 [Navitoclax] (partner 0.5 µM)
In short: as §1

YM155 + Linsitinib = compound: COCC[n+]1c2c(n(Cc3cnccn3)c1C)C(=O)c1ccccc1C2=O [YM155] + C[C@]1(O)C[C@@H](c2nc(-c3ccc4ccc(-c5ccccc5)nc4c3)c3c(N)nccn32)C1 [Linsitinib] (partner 1 µM)
In short: as §1

YM155 + Crizotinib = compound: COCC[n+]1c2c(n(Cc3cnccn3)c1C)C(=O)c1ccccc1C2=O [YM155] + C[C@@H](Oc1cc(-c2cnn(C3CCNCC3)c2)cnc1N)c1c(Cl)ccc(F)c1Cl [Crizotinib] (partner 1 µM)
In short: as §1

Cell Line	relative viability ([1]; first compound 0.001 µM)	relative viability ([1]; first compound 0.003162 µM)	relative viability ([1]; first compound 0.01 µM)	relative viability ([1]; first compound 0.03162 µM)	relative viability ([1]; first compound 0.1 µM)	relative viability (Quizartinib + Navitoclax; first compound 0.001 µM)	relative viability (Quizartinib + Navitoclax; first compound 0.003162 µM)	relative viability (Quizartinib + Navitoclax; first compound 0.01 µM)	relative viability (Quizartinib + Navitoclax; first compound 0.03162 µM)	relative viability (Quizartinib + Navitoclax; first compound 0.1 µM)	relative viability (YM155 + Linsitinib; first compound 0.002 µM)	relative viability (YM155 + Linsitinib; first compound 0.006325 µM)	relative viability (YM155 + Linsitinib; first compound 0.02 µM)	relative viability (YM155 + Linsitinib; first compound 0.06325 µM)	relative viability (YM155 + Crizotinib; first compound 0.002 µM)	relative viability (YM155 + Crizotinib; first compound 0.006325 µM)	relative viability (YM155 + Crizotinib; first compound 0.02 µM)	relative viability (YM155 + Crizotinib; first compound 0.06325 µM)
NCI-H2087	0.233	0.225	0.316	0.218	0.229	0.971	0.953	1.06	1.02	0.962	0.979	0.741	0.861	0.868	0.914	0.71	0.883	0.648
HCC-15	0.651	0.751	0.72	0.734	0.753	0.756	0.652	0.665	0.689	0.724	0.809	0.627	0.872	0.798	0.747	0.887	0.815	0.711
NCI-H1915	0.507	0.433	0.482	0.552	0.474	0.771	0.75	0.833	0.822	0.785	1.12	1.05	1.1	1.01	0.898	0.916	0.922	0.849
NCI-H1666	0.618	0.66	0.683	0.638	0.637	0.773	0.949	1.06	0.743	0.866	0.88		1.01	0.578	1.05		1.01	0.879
NCI-H1651	0.456	0.479	0.54	0.517	0.566	0.848	0.895	0.963	0.845	0.995	1.04	0.94	1	0.642	0.956	0.806	0.876	0.894
NCI-H2347	0.405	0.43	0.379	0.428	0.434	0.675	0.886	0.91	0.845	0.994	0.965	0.93	1.1	0.618	0.683	0.644	0.561	0.633
NCI-H1944	0.345	0.306	0.293	0.35	0.294	0.888	1.07	1.06	1.08	1.07	1.14	1.15	1.19	1.32	1.07	0.916	1.2	1.27
HCC-366	0.318	0.384	0.374	0.382	0.436	0.799	1.01	0.957	1.06	0.903	0.683	0.61	0.659	0.676	0.519	0.478	0.612	0.401
NCI-H1734	0.277	0.338	0.349	0.341	0.347	0.741	0.794	0.888	0.788	0.849	0.916	0.811	0.889	0.979	0.646	0.662	0.766	0.675
201T	0.322	0.371	0.361	0.401	0.401	1.24	1.21	1.25	1.24	1.25	0.98	0.984	1.03	1.06	0.98	1	1.01	1.03
NCI-H1792		0.654	0.702	0.617	0.66	0.584	0.646	0.697	0.617	0.587	0.507	0.548	0.552	0.626	1	1.05	0.994	0.984
PC-3 [JPC-3]	0.531	0.545	0.598	0.588	0.504	0.703	0.859	0.768	0.835	0.821	0.995	0.927	0.995	0.995	0.939	1.04	1.06	1.1
HCC-827	0.515	0.471		0.65	0.471	0.987	1.03	1.05	0.957	1.13	0.954	1.01	0.928	0.941	0.866	0.968	0.918	0.89
LXF-289	0.52	0.603	0.649	0.594	0.574	0.804	0.961	0.976	0.948	0.912	0.97	0.86	0.999	0.828	0.812	0.787	0.867	0.684
NCI-H520		0.257	0.251	0.196	0.175	1.17	0.982	1.19	0.948	0.888	0.895	1.13	1.04	0.957	0.755	0.725	0.835	0.66
RERF-LC-KJ	1.05	1.05	1.17	0.984	1.02	0.854	0.699	1.08	0.918	0.688	0.859	0.878	0.923	0.864	0.775	0.761	0.868	0.766
NCI-H3122	0.176	0.184	0.193	0.162	0.235	0.93	0.981	1.02	1.03	1.02	0.97	1	0.993	1.09	0.269	0.239	0.257	0.272
